Results from patent publication US4645778A, “2-(N-pyrrolidino)-3-isobutoxy-n-substituted-phenyl-n-benzyl-propylamines, their preparation and pharmaceutical use” (Riom Laboratoires C.E.R.M. "RL-Cerm"S.A., priority 1983, dated 1987).
Where two headings read alike, the source gives them in different places.

Experiments:
isolated aorta = test: Vascular tropism: anti-calcium effect on rabbit isolated aorta (contraction by calcium chloride); settings: for ISOLATED AORTA pA2 / ISOLATED AORTA pD'2: rabbit isolated aorta, K+ depolarised, 37° C., 15 min; for ISOLATED AORTA pA2: competitive antagonism vs calcium chloride; for ISOLATED AORTA pD'2: non-competitive antagonism vs calcium chloride; for vascular anti-calcium activity / vascular tropism (in words): vascular test, summary of Table I
Protocol: (§1) In vitro, the calcium antagonism activity was investigated in accordance with the methods summarised below.
Investigation of a vascular tropism
A rabbit's isolated aorta, cut into spirals, was placed in a KREBS solution kept at 37° C., free from Ca^++ and enriched with K^+ ([…] of KCL/liter) for depolarisation.
The contracting effect of cumulative concentrations of calcium chloride was investigated and the anti-calcium effect of the compounds studied was evaluated 15 minutes after their addition to the solution in which the aorta was kept.
(§2) The conventional parameters of molecular pharmacology are subsequently determined (pA2 for a competitive antagonism and pD'2 for a non-competitive anatagonism), using the technique of VAN ROSSUM [ARCH. INT. PHARMACODYN. THER. 143, 299-330 (1963)].

papillary muscle = test: Cardiac tropism: calcium antagonism on rabbit papillary muscle (inotropic effect of calcium chloride); settings: for cardiac anti-calcium activity / cardiac tropism (in words): cardiac test, summary of Table I; for PAPILLARY MUSCLE pA2 / PAPILLARY MUSCLE pD'2: rabbit papillary muscle
Protocol: as §1
Investiqation of a cardiac tropism
A rabbit's papillary muscle was placed in a KREBS-HENSELEIT solution kept at 37° C. and was stimulated electrically at a frequency of 1.5 Hz (5 ms of pulse at 15 V).
The positive inotropic effect of calcium chloride was investigated by the method of cumulative dose-response curves.
The substances to be studied were added to the solution in which the muscle was kept, 15 minutes prior to determining the agonist curves.
as §2

anaesthetised dog = test: Anti-angina activity: haemodynamic effects in the anaesthetised dog; format: in vivo; settings: 5 mg.kg^-1 intravenously; for anti-anginal activity (in words): summary of Table II; for change in vivo at 5 mg/kg: Canis lupus familiaris, iv
Protocol: In vivo, the anti-angina activity was investigated by measuring the haemodynamic effects in the anaesthetised dog, in accordance with the method summarised below.
The following parameters were recorded on the dog anaesthetised with chloralose (100 mg.kg^-1 administered intravenously):
pulse rate, by means of subcutaneous ECG electrodes connected to a BECKMAN cardiotachymeter (branch D II),
coronary arterial flow recorded by means of a STATHAM electromagnetic flowmeter and
antitachycardiac action (inhibition of the positive chronotropic effects of isoprenaline).
These parameters were recorded continuously on a BECKMAN dynograph and at the same time the duration of the action was measured.
The compounds of the invention are administered intravenously at a dose of 5 mg.kg^-1.

[1] = 37° C., 15 min preincubation, competitive antagonism vs calcium chloride
[2] = read-out: CORONARY FLOW Variation
[3] = inhibition of positive chronotropic effects of isoprenaline, read-out: ANTI-TACHYCARDIAC ACTION Variation
[4] = inhibition of positive chronotropic effects of isoprenaline

SMILES | ISOLATED AORTA pA2 (isolated aorta) | ISOLATED AORTA pD'2 (isolated aorta) | cardiac anti-calcium activity / cardiac tropism (in words) (papillary muscle) | PAPILLARY MUSCLE pA2 (papillary muscle; [1]) | PAPILLARY MUSCLE pD'2 (papillary muscle; 37° C., 15 min preincubation, non-competitive antagonism vs calcium chloride) | CORONARY FLOW Duration (anaesthetised dog) [min] | PULSE RATE Duration (anaesthetised dog) [min] | anti-anginal activity (in words) (anaesthetised dog) | change in vivo at 5 mg/kg (anaesthetised dog; [2]) [%] | change in vivo at 5 mg/kg (anaesthetised dog; read-out: PULSE RATE Variation) [%] | change in vivo at 5 mg/kg (anaesthetised dog; [3]) [%] | ANTI-TACHYCARDIAC ACTION Duration (anaesthetised dog; [4]) [min] | PAPILLARY MUSCLE pD'2 (papillary muscle; at 10^-4 M, 15 min) | PAPILLARY MUSCLE pA2 (papillary muscle; at 10^-4 M) | vascular anti-calcium activity / vascular tropism (in words) (isolated aorta) | PAPILLARY MUSCLE pA2 (papillary muscle; at 10^-4 M, 15 min) | PAPILLARY MUSCLE pA2 (papillary muscle; at 10^-5 M, 15 min) | PAPILLARY MUSCLE pD'2 (papillary muscle; at 10^-4 M)
Cc1ccc(N(Cc2ccccc2)CC(COCC(C)C)N2CCCC2)cc1 (stereo not shown) [Compound 1] | 4.83 ± 0.28 | 5.08 ± 0.27 | more marked cardiac tropism | 4.30 ± 0.24 | 3.81 ± 0.20 | – | – | – | – | – | – | – | – | – | – | – | – | –
CC(C)COCC(CN(Cc1ccccc1)c1ccc(Cl)c(Cl)c1)N1CCCC1 (stereo not shown) [Compound 2] | – | – | – | – | – | 10 | > 45 | most valuable anti-anginal activity | 39 | -11 | -51 | 15 | – | – | – | – | – | –
COc1ccc(N(Cc2ccccc2)CC(COCC(C)C)N2CCCC2)cc1 (stereo not shown) [Compound 3] | 4.70 ± 0.38 | 4.00 ± 0.24 | more marked cardiac tropism | 4.87 ± 0.40 | – | 20 | > 45 | most valuable anti-anginal activity | 196 | -24 | -63 | 30 | 4.5 | – | – | – | – | –
CC(C)COCC(CN(Cc1ccccc1)c1ccc(Cl)cc1)N1CCCC1 (stereo not shown) [Compound 4] | – | – | – | – | – | 3 | > 45 | – | 32 | -27 | -60 | > 45 | – | – | – | – | – | –
CC(C)COCC(CN(Cc1ccccc1)c1cccc(Cl)c1)N1CCCC1 (stereo not shown) [Compound 5, 2-(N-pyrrolidino)-3-isobutoxy-N-(3-chloro)-phenyl-N-benzyl-propylamine] | 4.83 ± 0.27 | 4.71 ± 0.20 | – | – | – | 15 | > 45 | most valuable anti-anginal activity | 98 | -20 | -45 | 15 | – | Inactive | – | – | – | –
CC(C)COCC(CN(Cc1ccccc1)c1cccc(C(F)(F)F)c1)N1CCCC1 (stereo not shown) [Compound 6] | 5.19 ± 0.37 | 3.73 ± 0.50 | – | – | – | 1 | > 45 | – | 20 | -32 | -64 | > 45 | – | – | predominantly vascular tropism | 3.41 | – | –
CC(C)COCC(CN(Cc1ccccc1)c1cc(Cl)cc(Cl)c1)N1CCCC1 (stereo not shown) [Compound 7] | 4.70 ±0.60 | 3.85 ± 0.43 | – | – | – | 5 | 45 | – | 31 | -23 | -54 | 45 | – | Inactive | – | – | – | –
Cc1cccc(C)c1N(Cc1ccccc1)CC(COCC(C)C)N1CCCC1 (stereo not shown) [Compound 8] | 5.21 ± 0.65 | 4.87 ± 0.48 | noteworthy | – | – | 15 | 35 | most valuable anti-anginal activity | 85 | -36 | -28 | 15 | 3.69 | – | noteworthy | – | 4.67 | –
CC(C)COCC(CN(Cc1ccccc1)c1ccc2c(c1)OCO2)N1CCCC1 (stereo not shown) [Compound 11, 2-(N-pyrrolidino)-3-isobutoxy-N-(3,4-methylenedioxy)-phenyl-N-benzyl-propylamine] | 4.94 ± 0.43 | 4.80 ± 0.05 | about the highest activity | 5.44 ± 0.26 | – | 20 | > 45 | most valuable anti-anginal activity | 116 | -50 | -47 | 45 | – | – | about the highest activity | – | – | total
